{
  "source": "paper PMC3863970",
  "about": "(Nature Communications, 2013)",
  "key": {"rSH/1 virus": {"system": "rSH/1 virus", "parameters": "species or system influenza A(H7N9) virus", "settings": "in vivo"}, "rSH/1:AH/1-NA virus": {"system": "rSH/1:AH/1-NA virus", "parameters": "species or system influenza A(H7N9) virus", "settings": "in vivo"}},
  "note": "Entries after “also recorded” stand apart in the source; their conditions may differ.",
  "data": [
    {"smiles": "CC(=O)N[C@H]1[C@H]([C@H](O)[C@H](O)CO)OC(C(=O)O)=C[C@@H]1N=C(N)N", "note": "[Zanamivir, zanamivir]", "values": [
      {"measurement": "viral lung titres compared with mice treated with vehicle only", "setting": "rSH/1 virus", "value": "significantly reduced"},
      {"measurement": "viral lung titres compared with mice treated with vehicle only", "setting": "rSH/1:AH/1-NA virus", "value": "significantly reduced"}
    ]},
    {"smiles": "CCOC(=O)C1=C[C@@H](OC(CC)CC)[C@H](NC(C)=O)[C@@H](N)C1", "note": "[Oseltamivir, oseltamivir]", "values": [
      {"measurement": "effect on viral lung titres", "setting": "rSH/1 virus; po", "value": "no effect; also recorded: does not suppress H7N9 virus replication"},
      {"measurement": "reduction in viral lung titres", "setting": "rSH/1:AH/1-NA virus; po", "value": 1, "unit": "log"}
    ]}
  ]
}
